Experimental data taken from patent publication US10059741B2 (priority 2015, dated 2018).
Where “and” joins values, the source holds several entries; their conditions need not be identical. Equal values may be shown once. Bridge positions count the residues as written; N and C are the ends. Square brackets hold non-standard residues; d marks the D form. Peptide text beside a SMILES is read from it. S5 = C=CCCC[C@](C)(N)C(=O)O; Nle = CCCC[C@H](N)C(=O)O; Aib = CC(C)(N)C(=O)O

Experiments:
[1] = in vitro; conditions: dog, CC50
[2] = system: H7N9 A/Anhui/1/2013; assay: microbe, parasite or virus in culture; assay type: cell-based, influenza A virus; conditions: read-out: EC50
[3] = system: Influenza A H1N1 Influenza A/Texas/4/2009; assay: microbe, parasite or virus in culture; assay type: cell-based, influenza A virus
[4] = system: Influenza B Brisbane/60/2008; assay: Cytopathic effect (CPE) inhibition in MDCK cells, neutral red; assay type: cell-based; conditions: read-out: EC50
[5] = system: H1N1 California/07/2009; assay: microbe, parasite or virus in culture; assay type: cell-based, influenza A virus
[6] = system: Influenza A H3N2 Influenza A/Brisbane/10/2007; assay: microbe, parasite or virus in culture; assay type: cell-based, influenza A virus
[7] = system: influenza virus, various viral strains; assay type: cell-based
[8] = system: Influenza B/Brisbane/60/2008; assay: microbe, parasite or virus in culture; assay type: cell-based
[9] = system: Influenza A H1N1 Influenza A/California/7/2009; assay: microbe, parasite or virus in culture; assay type: cell-based, influenza A virus
[10] = system: Influenza B Florida/04/2006; assay: Cytopathic effect (CPE) inhibition in MDCK cells, neutral red; assay type: cell-based; conditions: read-out: EC50
[11] = system: H5N1 A/Duck/MN/1525/81; assay: microbe, parasite or virus in culture; assay type: cell-based, influenza A virus; conditions: read-out: EC50
[12] = system: H3N2 Perth/16/2009; assay: microbe, parasite or virus in culture; assay type: cell-based, influenza A virus
[13] = Plasma PK in a cyno monkey, single subcutaneous dose
[14] = system: H1N1 A/Solomon Island/03/2006; assay type: cell-based, influenza A virus; conditions: read-out: EC50
[15] = system: H5N1 A/Hong Kong/213/2003; assay: microbe, parasite or virus in culture; assay type: cell-based, influenza A virus; conditions: read-out: EC50
[16] = cynomolgus monkey, sc, 2.25 mg/kg

With `CCCC[C@H](NC(C)=O)C(=O)N[C@@H](CC(=O)O)C(=O)N[C@H](C(=O)N[C@@H](CC(N)=O)C(=O)N[C@@]1(C)CCCC=CCCC[C@@](C)(C(=O)N[C@@H](CC(C)C)C(=O)N[C@@H](CCCCN)C(=O)N[C@H](C(=O)NC(C)(C)C(=O)N[C@@H](C)C(=O)N[C@@H](CCC(N)=O)C(N)=O)C(C)C)NC(=O)[C@H](CC(C)C)NC(=O)[C@H](CC(C)C)NC(=O)[C@H]([C@@H](C)O)NC1=O)C(C)C` [AP1, Ac-NleDVN$TLL$LKVAibAQ-NH2] (Ac-[Nle]DVN[S5]TLL[S5]LKV[Aib]AQ-NH2; staple 5-9) as the compound, how does the CC50 [1] read?
Its CC50 is over 100 µM.

What about the EC50 [2] of the same compound?
Its EC50 is over 100 µM.

And the EC50 ([3]; read-out: EC50)?
Its EC50 is over 100 µM.

And the EC90 ([3]; read-out: EC90)?
The EC90 was over 100 µM.

What about the EC50 [4] of the same compound?
Its EC50 is 6.9 µM.

What about the EC50 ([5]; read-out: EC50) of the same compound?
Its EC50 is 28 µM.

And the EC90 ([5]; read-out: EC90)?
Its EC90 is over 65 µM.

And the EC50 ([6]; read-out: EC50)?
Its EC50 is over 100 µM.

What about the EC90 ([6]; read-out: EC90) of the same compound?
The EC90 was over 100 µM.

And the EC90 [7]?
The EC90 was over 100 µM.

And the EC50 [8]?
The EC50 was over 100 µM.

What about the EC90 [8] of the same compound?
Its EC90 is over 100 µM.

What about the EC50 ([9]; read-out: EC50) of the same compound?
The EC50 was over 100 µM.

And the EC90 ([9]; read-out: EC90)?
Its EC90 is over 100 µM.

What about the EC50 [10] of the same compound?
Its EC50 is 11 µM.

What about the EC50 [11] of the same compound?
Its EC50 is 6.3 µM and 6.4 µM.

What about the EC90 [12] of the same compound?
The EC90 was 28 µM.

And the EC50 ([12]; read-out: EC50)?
The EC50 was 12 µM.

And the “time at which drug levels were measureable (last time point assessed)” value ([13]; cyno monkey, single subcutaneous dose 2.25 mg/kg)?
The value was 96 h.

What about the MRT [13, 16] of the same compound?
The MRT was 21 h.

What about the half-life [13, 16] of the same compound?
The half-life was 13 h.

What about the EC50 [14] of the same compound?
The EC50 was 3 µM and 1.8 µM.

What about the EC50 [15] of the same compound?
The EC50 was over 100 µM.
